In patent US20150175599A1, “FAAH Inhibitors” (Ironwood Pharmaceuticals, Inc., priority 2010, published 2015):

Experiments:
[1] = biological target: T1, human cannabinoid receptor, CB1 (Homo sapiens, UniProt P21554); assay: Human CB1 cannabinoid receptor radioligand binding assay ([3H]-CP 55,940); conditions: Table 4
T1 construct: (cDNA clone) CNR01L000; membranes prepared from it
Source text: cDNA expression clones for human CB1 (hCB 1, Genbank Accession No. AY225225) expressed in vector pcDNA3.1+ were purchased from UMR cDNA Resource Center, Rolla, Mo. (Clone ID CNR01L000 for hCB 1).
Stable, HEK-293-derived cell lines that recombinantly express hCB 1 were established. In brief, the clone hCB 1 (CNR1L) was transfected into human embryonic kidney cells (HEK-293) using Lipofectamine 2000 (Gibco, Cat#11668-019) according to the manufacturer's protocol. Transfected clones were isolated by single colony purification and clones were screened for receptor expression using a whole cell, ^3H-CP 55,940 radioligand binding assay. HEK-293 stable cells were maintained in Dulbecco's modified Eagles medium (DMEM) containing 10% fetal bovine serum, 2 mM L-glutamine and 0.5 mg/mL G-418.
Membranes were isolated from transfected cells as follows. Monolayers of cultured cells were washed twice with phosphate-buffered saline (PBS). […] Protein concentration of membrane suspensions were measured by Bradford Protein Assay using bovine serum albumin as the standard (BioRad catalog #500-0006). […]
Radioligand binding assays were performed by incubating membranes (2-10 ug protein) prepared from HEK-293 cells expressing recombinant human cannabinoid receptor, CB1, at room temperature with 0.5 nM cannabinoid receptor agonist, [^3H]-CP 55,940 (Perkin Elmer, catalog #NET1051) in 0.2 mL of binding buffer (50 mM Tris-HCl, pH 7.5, 5 mM MgCl2, 2.5 mM EDTA) and 0.1% fatty acid free bovine serum albumin (Sigma Cat. #A0821) for 90 minutes. […] The radioactivity bound to the filters was counted with 0.05 mL of liquid scintillant (UltraGold MV, PerkinElmer catalog #6013159) in a scintillation counter (Perkin Elmer Microbeta instrument). Nonspecific binding was determined in the presence of unlabeled 1 uM CP 55,940 (Sigma Aldrich, catalog #C1112). Binding data were analyzed using GraphPad Prism (GraphPad Software, Inc. San Diego, Calif.).

[2] = Pharmacokinetic study, plasma level 2 hours after oral dosing in rats; format: in vivo
In short: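 Rats dosed by oral gavage in 1% DMA/99% Vitamin E TPGS; EDTA plasma taken by retro-orbital bleed 2 h post-dose. Acetonitrile precipitation with internal standard, LC/MS/MS quantitation against plasma standards 0.1–3000 ng/mL.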

T1 sequence (P21554 whole entry): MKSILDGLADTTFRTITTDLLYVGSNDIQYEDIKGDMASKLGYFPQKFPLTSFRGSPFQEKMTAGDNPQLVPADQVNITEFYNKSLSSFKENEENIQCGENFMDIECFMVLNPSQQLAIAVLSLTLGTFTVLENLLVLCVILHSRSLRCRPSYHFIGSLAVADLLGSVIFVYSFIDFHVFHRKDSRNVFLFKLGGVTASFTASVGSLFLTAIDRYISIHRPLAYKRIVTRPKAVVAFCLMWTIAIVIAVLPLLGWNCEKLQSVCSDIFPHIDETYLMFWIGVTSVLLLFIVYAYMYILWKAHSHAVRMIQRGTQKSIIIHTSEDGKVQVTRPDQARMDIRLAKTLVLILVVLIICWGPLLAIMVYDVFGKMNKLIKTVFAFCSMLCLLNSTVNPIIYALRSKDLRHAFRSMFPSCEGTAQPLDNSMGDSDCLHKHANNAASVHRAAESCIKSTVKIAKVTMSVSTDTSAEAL

Structure (SMILES)	IC50 [1]	2 hr plasma level-ng/mL (rat, 10 mg/kg PO, 2 hr) [2]
COc1ccc2c(c1)c(C(=O)C(=O)Nc1ccnc(OC)c1)c(C)n2Cc1ncc(Cl)cc1OC [Compound 100, 2-(1-((5-chloro-3-methoxypyridin-2-yl)methyl)-5-methoxy-2-methyl-1H-indol-3-yl)-N-(2-methoxypyridin-4-yl)-2-oxoacetamide]	> 10 µM	
COc1cc(NC(=O)C(=O)c2c(C)n(Cc3ncc(F)cc3F)c3cc(F)c(OC)cc23)ccn1 [Compound 101, 2-(1-((3,5-difluoropyridin-2-yl)methyl)-6-fluoro-5-methoxy-2-methyl-1H-indol-3-yl)-N-(2-methoxypyridin-4-yl)-2-oxoacetamide]	1 to 10 µM	D (D = greater than 1000 nM)
COc1cc(NC(=O)C(=O)c2c(C)n(Cc3ncc(Cl)cc3F)c3cc(F)c(OC)cc23)ccn1 [Compound 99, 2-(1-((5-chloro-3-fluoropyridin-2-yl)methyl)-6-fluoro-5-methoxy-2-methyl-1H-indol-3-yl)-N-(2-methoxypyridin-4-yl)-2-oxoacetamide]	1 to 10 µM	D (D = greater than 1000 nM)
COc1ccc(Cn2c(C)c(C(=O)C(=O)Nc3ccnc(OC)c3)c3cc(C)ccc32)nc1 [Compound 69, 2-(1-((5-methoxypyridin-2-yl)methyl)-2,5-dimethyl-1H-indol-3-yl)-N-(2-methoxypyridin-4-yl)-2-oxoacetamide]		C (C = between 100 nM and 1000 nM)
COc1ccc2c(c1)c(C(=O)C(=O)Nc1ccnc(OC)n1)c(C)n2Cc1ccc(Cl)cc1 [Compound 46, 2-(1-(4-chlorobenzyl)-5-methoxy-2-methyl-1H-indol-3-yl)-N-(2-methoxypyrimidin-4-yl)-2-oxoacetamide]		C (C = between 100 nM and 1000 nM)
COc1cnc2c(c1)c(C(=O)C(=O)Nc1ccnc(OC)c1)c(C)n2Cc1ccc(Cl)cc1Cl [Compound 42, 2-(1-(2,4-dichlorobenzyl)-5-methoxy-2-methyl-1H-pyrrolo[2,3-b]pyridin-3-yl)-N-(2-methoxypyridin-4-yl)-2-oxoacetamide]		C (C = between 100 nM and 1000 nM)
COc1cnc2c(c1)c(C(=O)C(=O)Nc1ccnc(OC)c1)c(C)n2Cc1ccc(Cl)cc1 [Compound 38, 2-(1-(4-chlorobenzyl)-5-methoxy-2-methyl-1H-pyrrolo[2,3-b]pyridin-3-yl)-N-(2-methoxypyridin-4-yl)-2-oxoacetamide]		C (C = between 100 nM and 1000 nM)
COc1ccc2c(c1)c(C(=O)C(=O)Nc1cc(Cl)nc(OC)c1)c(C)n2Cc1ccc(Cl)cc1 [Compound 47, N-(2-chloro-6-methoxypyridin-4-yl)-2-(1-(4-chlorobenzyl)-5-methoxy-2-methyl-1H-indol-3-yl)-2-oxoacetamide]		C (C = between 100 nM and 1000 nM)
COc1cc(NC(=O)C(=O)c2c(C)n(Cc3ccc(Cl)cc3)c3cc(F)c(OC)cc23)ccn1 [Compound 72, 2-(1-(4-chlorobenzyl)-6-fluoro-5-methoxy-2-methyl-1H-indol-3-yl)-N-(2-methoxypyridin-4-yl)-2-oxoacetamide]		C (C = between 100 nM and 1000 nM)
COc1cc(NC(=O)C(=O)c2c(C)n(Cc3ccc(Cl)cc3)c3ccc(C(F)(F)F)cc23)ccn1 [Compound 21, 2-(1-(4-chlorobenzyl)-2-methyl-5-(trifluoromethyl)-1H-indol-3-yl)-N-(2-methoxypyridin-4-yl)-2-oxoacetamide]		C (C = between 100 nM and 1000 nM)
COc1cc(NC(=O)C(=O)c2c(C)n(Cc3ncc(Cl)cc3Cl)c3cc(F)c(OC)cc23)ccn1 [Compound 13, 2-(1-((3,5-dichloropyridin-2-yl)methyl)-6-fluoro-5-methoxy-2-methyl-1H-indol-3-yl)-N-(2-methoxypyridin-4-yl)-2-oxoacetamide]		C (C = between 100 nM and 1000 nM)
COc1ccc2c(c1)c(C(=O)C(=O)Nc1cc(OC)ncc1F)c(C)n2Cc1ccc(Cl)cc1 [Compound 54, 2-(1-(4-chlorobenzyl)-5-methoxy-2-methyl-1H-indol-3-yl)-N-(5-fluoro-2-methoxypyridin-4-yl)-2-oxoacetamide]		A (A = Less than 10 nM)
COc1cc(NC(=O)C(=O)c2c(C)n(Cc3ccc(Cl)cc3)c3cc(C)c(OC)cc23)ccn1 [Compound 74, 2-(1-(4-chlorobenzyl)-5-methoxy-2,6-dimethyl-1H-indol-3-yl)-N-(2-methoxypyridin-4-yl)-2-oxoacetamide]		C (C = between 100 nM and 1000 nM)
COc1cc(NC(=O)C(=O)c2c(C)n(Cc3ccc(Cl)cc3)c3ccc(C#N)cc23)ccn1 [Compound 15, 2-(1-(4-chlorobenzyl)-5-cyano-2-methyl-1H-indol-3-yl)-N-(2-methoxypyridin-4-yl)-2-oxoacetamide]		D (D = greater than 1000 nM)
COc1cc(NC(=O)C(=O)c2c(C)n(Cc3ccc(Cl)cn3)c3cc(Cl)c(OC)cc23)ccn1 [Compound 60, 2-(6-chloro-1-((5-chloropyridin-2-yl)methyl)-5-methoxy-2-methyl-1H-indol-3-yl)-N-(2-methoxypyridin-4-yl)-2-oxoacetamide]		D (D = greater than 1000 nM)
COc1ccc(Cn2c(C)c(C(=O)C(=O)Nc3ccnc(OC)c3)c3cc(OC)c(F)cc32)nc1 [Compound 32, 2-(6-fluoro-5-methoxy-1-((5-methoxypyridin-2-yl)methyl)-2-methyl-1H-indol-3-yl)-N-(2-methoxypyridin-4-yl)-2-oxoacetamide]		C (C = between 100 nM and 1000 nM)
